Experimental data taken from patent US20220233565A1, “REDUCED NICOTINAMIDERIBOSIDES FOR TREATING/PREVENTING SKELETAL MUSCLE DISEASE” (SOCIETE DES PRODUITS NESTLE S.A., priority 2019, published 2022).
“Also recorded” adds a separate entry of the source. Structures can show the parent of a compound that is named as a salt. Values belong to the compound of their own block, whether it stands above or below them.

Experiments:
NAMPT = molecular target: T1, NAMPT (Mus musculus, UniProt Q99KQ4); assay: NRH action in presence of NAMPT inhibitor FK866; format: cell-based; conditions: with FK866, a NAMPT inhibitor
T1 construct: endogenous in cells
Excerpt: (§1) The action of NRH was also NAMPT-independent, based on experiments using FK866, a NAMPT inhibitor. If NRH led to NAD+ synthesis via the formation of NMNH, this hypothetical path would require the phosphorylation of NRH into NMNH. Given the essential and rate-limiting role of NRK1 in NR phosphorylation, we wondered whether the ability of NRH to boost NAD+ levels was NRK1 dependent. To answer this question, we evaluated NRH action in primary hepatocytes from either control or NRK1 knockout (NRK1KO) mice. […] Further, they rule out the possibility that NRH-induced NAD+ […] is driven by NRH oxidation into NR.

[1] = system: equilibrative nucleoside transporters (ENTs); assay: NRH as extracellular NAD+ precursor under blockage of ENT-mediated transport (NBTI); format: cell-based; conditions: in the presence of NBTI
Excerpt: In order to understand the exact path by which NRH synthesizes NAD+, we initially evaluated whether NRH, could be transported into the cell by equilibrative nucleoside transporters (ENTs).

[2] = Oral gavage in mice: NRH levels in tissues; format: in vivo; conditions: 2 hours after gavage (250 mg/kg)
Experimental: 8 week-old C57BI/6NTac mice were orally gavaged with either saline (as vehicle), and NRH (250 mg/kg). After 2 hours, liver, skeletal muscle and kidney NRH levels were evaluated. All results are expressed as mean+/−SEM of n=4 mice per group, as areas under the signal by LC-MS analysis, corrected by total protein amount of tissue.
(§2) Levels of NRH and other NAD-related metabolites in biological samples were obtained by using a cold liquid-liquid extraction using a mixture of methanol:water:chloroform in 5:3:5 (v/v), from which the polar phase was recovered for hydrophilic interaction ultra-high performance liquid chromatography mass spectrometry (UHPLC-MS) analysis. The UHPLC consisted of a binary pump, a cooled autosampler, and a column oven (DIONEX Ultimate 3000 UHPLC+ Focused, Thermo Scientific), connected to a triple quadrupole spectrometer (TSQ Vantage, Thermo Scientific) equipped with a heated electrospray ionisation (H-ESI) source. Of each sample, 2 μL were injected into the analytical column (2.1 mm×150 mm, 5 μm pore size, 200 Å HILICON iHILIC®-Fusion(P)), guarded by a pre-column (2.1 mm×20 mm, 200 Å HILICON iHILIC®-Fusion(P) Guard Kit) operating at 35° C. The mobile phase (10 mM ammonium acetate at pH 9, A, and acetonitrile, B) was pumped at 0.25 mL/min flow rate over a linear gradient of decreasing organic solvent (0.5-16 min, 90-25% B), followed by re-equilibration for a total run time of 30 min. The MS operated in positive mode at 3500 V with multiple reaction monitoring (MRM). The software Xcalibur v4.1.31.9 (Thermo Scientific) was used for instrument control, data acquisition and processing. Retention time and mass detection was confirmed by authentic standards.

[3] = Oral gavage in mice: hepatic NAD+ and plasma metabolites; format: in vivo; conditions: for administered compound in plasma: 1 h after oral administration
Experimental: 8 week-old C57BI/6NTac mice were orally gavaged with either saline (as vehicle), NR (500 mg/kg) or NRH (500 mg/kg). After 1 hour, liver, skeletal muscle and kidney NAD levels were evaluated. All results are expressed as mean+/−SEM of n=5 mice per group. * indicates statistical difference at p<0.05 vs. vs. saline-treated mice. # indicates statistical difference at p<0.05 vs. NR treated mice.
as §2
Oral administration of NRH led to very similar results to those observed after IP administration. […] NRH was detectable in plasma 1 h after oral administration. In contrast, NR levels were undetectable at 1 h after NR administration.

NAD+ synthesis = assay: Intracellular NAD+ related metabolites after treatment (UHPLC-MS); format: cell-based; conditions: for intracellular detection of NRH and NMNH: 5 minutes after treatment
Excerpt: as §2
A path in which NRH would be converted to NMNH, then to NADH and this would be finally oxidized to NAD+.

C2C12 myotubes = assay: NAD+ levels in C2C12 myotubes after NRH treatment; format: cell-based
Experimental: (§3) The ability of NRH to potently increase NAD+ was tested as well in other cell type models.

AML12 hepatocytes = assay: Intracellular NAD+ levels in AML12 hepatocytes (dose-response and time course); format: cell-based
Experimental: Starting at levels at a concentration of 10 μM, NRH achieved similar increases in intracellular NAD+ levels to those reached with NR at 50-fold higher concentrations. NRH achieved maximal effects on NAD+ synthesis around the millimolar range, managing to increase intracellular NAD+ levels by more than 10-fold.
NRH actions were also extremely fast, as significant increases in NAD+ levels were observed within 5 minutes after NRH treatment.
Even at such relatively low dose, NRH achieved similar increases in intracellular NAD+ levels to those reached with NR at 50-fold higher concentrations. NRH achieved maximal effects on NAD+ synthesis around the millimolar range, managing to increase intracellular NAD+ levels by more than 10-fold.
NRH actions were also extremely fast (FIG. 3), as significant increases in NAD+ levels were observed within 5 minutes after NRH treatment.

[4] = Stability in isolated mouse plasma; format: in vitro ADME; conditions: for generation of NAM in plasma / level of spiked compound in plasma: isolated mouse plasma, 2 h of incubation
Excerpt: as §2
(§4) NR degradation to NAM has been proposed as a limitation for its pharmacological efficacy. To evaluate whether NRH was also susceptible to degradation to NAM, we spiked NRH or NR in isolated mouse plasma. […] We also tested the stability of NRH in other matrixes. […] Finally, we also certified NRH stability in water (pH=7, at room temperature) for 48 h.

NRK1 = assay: NAD+ levels in primary hepatocytes from control or NRK1 knockout mice; format: cell-based; conditions: 1 hour of treatment
Excerpt: as §1

3T3 fibroblasts = assay: NAD+ levels in 3T3 fibroblasts after NRH treatment; format: cell-based
Experimental: as §3

adenosine kinase (AK) = molecular target: T2, adenosine kinase (AK) (Mus musculus, UniProt P55264); assay: NRH-induced NAD+ synthesis under adenosine kinase inhibition; format: cell-based; parameters: effect of AK inhibitor on the action of NRH (NAD+ synthesis): dose or concentration left out as unconfirmed; conditions: for effect of AK inhibitor on the action of NRH (NAD+ synthesis): AML12 cells, inhibitor 1 hour prior to NRH (5-IT), NAD+ 1 hour later
T2 construct: endogenous in cells; host or cells: AML12 cells
Experimental: FIG. 4. […] AML12 cells were treated with an adenosine kinase inhibitor (5-IT; […]) for 1 hour prior to NRH treatment at the doses indicated. Then, 1 hour later, acidic extracts were obtained to measure NAD^+ levels. All values in the figure are expressed as mean+/−SEM of 3 independent experiments. * indicates statistical difference at p<0.05 vs. the respective vehicle treated group.

Stability in water = format: physicochemical; conditions: pH=7, room temperature
Experimental: as §4

[5] = Intraperitoneal injection in mice: tissue NAD+ and circulating metabolites; format: in vivo; conditions: for NAM levels in circulation / NAD+ levels in kidney / NAD+ levels in liver / NAD+ levels in muscle: IP 500 mg/kg; for NAD+ levels in kidney / NAD+ levels in liver / NAD+ levels in muscle: after 1 h
Excerpt: as §2
The above results prompted us to test whether NRH could act as an effective NAD+ precursor in vivo. For this, we first intraperitoneally (IP) injected mice with either NR or NRH (500 mg/kg). […] Importantly, NRH was detectable in circulation after IP injection.

[6] = Stability in FBS supplemented media; format: in vitro ADME
Experimental: as §4

INS1-cells = assay: NAD+ levels in INS1-cells after NRH treatment; format: cell-based
Experimental: as §3

NMNAT = assay: NRH-induced NAD+ synthesis under NMNAT inhibition (gallotannin); format: cell-based
Excerpt: As a follow-up step, NMNAT enzymes could catalyze the transition from NMNH to NADH. […] Yet, part of the NRH action remained after gallotannin treatment when NRH was used at maximal doses.

T2 sequence (P55264 whole entry): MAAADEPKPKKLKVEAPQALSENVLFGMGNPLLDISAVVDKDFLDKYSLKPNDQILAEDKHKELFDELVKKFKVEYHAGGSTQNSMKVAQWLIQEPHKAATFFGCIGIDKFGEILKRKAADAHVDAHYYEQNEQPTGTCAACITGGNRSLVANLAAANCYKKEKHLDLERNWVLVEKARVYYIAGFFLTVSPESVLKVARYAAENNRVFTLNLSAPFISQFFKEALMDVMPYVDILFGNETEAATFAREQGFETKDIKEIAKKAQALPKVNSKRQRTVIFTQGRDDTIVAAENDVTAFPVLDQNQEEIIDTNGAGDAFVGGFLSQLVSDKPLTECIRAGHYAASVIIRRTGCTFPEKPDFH
T1 sequence (Q99KQ4 whole entry): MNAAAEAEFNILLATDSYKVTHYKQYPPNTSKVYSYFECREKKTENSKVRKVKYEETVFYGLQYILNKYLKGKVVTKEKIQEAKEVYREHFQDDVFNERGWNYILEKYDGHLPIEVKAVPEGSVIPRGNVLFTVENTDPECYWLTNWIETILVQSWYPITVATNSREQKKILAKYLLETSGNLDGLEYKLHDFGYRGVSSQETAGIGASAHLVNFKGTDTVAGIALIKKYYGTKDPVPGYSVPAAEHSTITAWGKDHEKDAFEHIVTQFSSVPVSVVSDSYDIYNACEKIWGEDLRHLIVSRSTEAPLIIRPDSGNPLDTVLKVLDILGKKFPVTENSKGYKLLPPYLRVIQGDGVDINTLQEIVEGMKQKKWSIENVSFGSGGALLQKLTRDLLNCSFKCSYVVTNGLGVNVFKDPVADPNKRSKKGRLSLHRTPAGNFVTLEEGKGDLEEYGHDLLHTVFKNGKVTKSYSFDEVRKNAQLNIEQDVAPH

Structure (SMILES): NC(=O)C1=CN([C@@H]2O[C@H](CO)[C@@H](O)[C@H]2O)C=CC1 [NRH, reduced nicotinamide riboside]
dependence of action on NAMPT (NAMPT): NAMPT-independent
capacity as extracellular NAD+ precursor under ENT blockage [1]: largely lost its capacity
NRH in kidney [2]: found intact, in high levels
NRH in liver [2]: found intact, in high levels
NRH in muscle [2]: found intact, in high levels
administered compound in plasma [3]: detectable
NRH concentration in plasma ([3]; after oral gavage): 11.16 ± 1.74 µM
effect on hepatic NAD+ levels compared with NR ([3]; oral administration): more potent effect
intracellular detection of NRH and NMNH (NAD+ synthesis): could be detected
intracellular NR and NMN (NAD+ synthesis; after treatment, compared with NR): greater than that triggered by NR itself
NAD+ levels (C2C12 myotubes): highly elevated
ability to increase intracellular NAD+ compared with NR (AML12 hepatocytes; AML12 hepatocytes): better than NR; also recorded: superior to that of NR
time to significant increase in NAD+ levels after treatment (AML12 hepatocytes; AML12 hepatocytes (FIG. 3)): ≤ 5 min
increase of intracellular NAD+ levels (maximal effect) (AML12 hepatocytes; AML12 hepatocytes, around the millimolar range): more than 10 fold
concentration at which NAD+ levels were significantly increased (AML12 hepatocytes; AML12 hepatocytes, dose-response (FIG. 2)): 10 µM
fold higher NR concentration needed for similar increase in intracellular NAD+ (AML12 hepatocytes; NRH at 10 μM versus NR): 50 fold
NR production in plasma ([4]; incubation in isolated plasma): did not lead to NR production
generation of NAM in plasma [4]: not generated; also recorded: did not significantly alter NAM levels
level of spiked compound in plasma [4]: remained stable
NAD+ levels in NRK1KO derived primary hepatocytes (NRK1): not affected by NRK1 deficiency
NAD+ levels (3T3 fibroblasts): highly elevated
generation of NMNH, NADH and NAD+ from NRH upon inhibition of AK (adenosine kinase (AK); metabolomic analyses): fully blunted
time for which stability in water was certified (Stability in water): 48 h
NAM levels in circulation [5]: only a very mild increase
NAD+ levels in kidney [5]: increased
NAD+ levels in liver [5]: increased
NAD+ levels in muscle [5]: increased
NRH in circulation ([5]; after IP injection): detectable
NR in circulation ([5]; after IP injection, compared with NR injection): much higher levels than those detected after NR injection itself
degradation to NAM in FBS supplemented media [6]: did not degrade to NAM
NAD+ levels (INS1-cells): highly elevated

Structure (SMILES): Nc1ncnc2c1c(I)cn2[C@@H]1O[C@H](CO)[C@@H](O)[C@H]1O [5-IT, 5-iodotubercidin]
effect of AK inhibitor on the action of NRH (NAD+ synthesis) (adenosine kinase (AK)): fully ablated
formation of NR and NMN after NRH treatment (adenosine kinase (AK); with AK inhibitor): prevented

Structure (SMILES): O=C(OC[C@H]1O[C@@H](OC(=O)c2cc(O)c(O)c(OC(=O)c3cc(O)c(O)c(O)c3)c2)[C@H](OC(=O)c2cc(O)c(O)c(OC(=O)c3cc(O)c(O)c(O)c3)c2)[C@@H](OC(=O)c2cc(O)c(O)c(OC(=O)c3cc(O)c(O)c(O)c3)c2)[C@@H]1OC(=O)c1cc(O)c(O)c(OC(=O)c2cc(O)c(O)c(O)c2)c1)c1cc(O)c(O)c(OC(=O)c2cc(O)c(O)c(O)c2)c1 [gallotannin]
effect of NMNAT inhibitor on NAD+ synthesis after NRH treatment (NMNAT; NRH at maximal doses (0.5 mM)): largely compromised
effect of NMNAT inhibitor on NRH action (NMNAT; NRH at submaximal doses): totally blocked

effect of AK inhibitor on the action of NRH (NAD+ synthesis) (adenosine kinase (AK)): confirmed
Structure (SMILES): Nc1ncnc2nc(-c3ccc(N4CCOCC4)nc3)cc(-c3cccc(Br)c3)c12 [ABT-702]

administered compound in plasma [3]: undetectable
circulating NAM ([3]; oral administration): large increases
generation of NAM in plasma [4]: increase in NAM
level of spiked compound in plasma [4]: decayed
NAD+ levels in NRK1KO derived primary hepatocytes (NRK1): failed to increase NAD+ levels
NAM levels in circulation [5]: highly increased
Structure (SMILES): NC(=O)c1ccc[n+]([C@@H]2O[C@H](CO)[C@@H](O)[C@H]2O)c1 [NR, 1-b-D-ribofuranosyl-3-pyridinecarboxamide salt, reference compound]
intracellular detection of NRH and NMNH (NAD+ synthesis): not
NAD+ levels in kidney [5]: increased
NAD+ levels in liver [5]: increased
NAD+ levels in muscle [5]: increased
